Reference: ChEMBL document CHEMBL3603790, “2- and 3-Fluoro-3-deazaneplanocins, 2-fluoro-3-deazaaristeromycins, and 3-methyl-3-deazaneplanocin: Synthesis and antiviral properties” (Bioorg Med Chem, 2015)
Active and inactive are the calls of the source. No cut-off for these calls is given here.

Assays:
Hepatitis B virus = assay: Antiviral activity against HBV infected in human HepG22.2.15 cells after 3 days by neutral red dye-based plaque reduction assay; format: functional, organism-based; conditions: HepG2 2.2.15, 72 h
[1] = Cytotoxicity against human […] cells; format: cell-based
[2] = Cytotoxicity against African green monkey Vero 76 cells; format: cell-based; conditions: chlorocebus sabaeus, Vero 76 cells
[3] = Cytotoxicity against African green monkey Vero 76 cells relative to control; format: cell-based; conditions: chlorocebus sabaeus
[4] = Cytotoxicity against MDCK cells relative to control; format: cell-based, Canis lupus familiaris; conditions: dog
Influenza B virus = assay: Antiviral activity against Influenza B virus infected in MDCK cells after 3 days by neutral red dye-based plaque reduction assay; format: functional, organism-based; conditions: 72 h
Tacaribe virus = assay: Antiviral activity against Tacaribe virus infected in African green monkey Vero 76 cells after 3 days by neutral red dye-based plaque reduction assay; format: functional, organism-based; conditions: Mammarenavirus tacaribeense, 72 h
Rift Valley fever virus = assay: Antiviral activity against Rift Valley fever virus infected in African green monkey Vero 76 cells after 3 days by neutral red dye-based plaque reduction assay; format: functional, organism-based; conditions: 72 h
[5] = Selectivity index, ratio of CC50 for African green monkey Vero cells to IC50 for Dengue virus; format: functional
Influenza A virus [6] = assay: Antiviral activity against Influenza A virus H5N1 infected in MDCK cells after 3 days by neutral red dye-based plaque reduction assay; format: functional, organism-based; conditions: 72 h
[7] = Cytotoxicity against MDCK cells; format: cell-based, Canis lupus familiaris; conditions: dog, MDCK cells
Dengue virus = assay: Antiviral activity against Dengue virus infected in African green monkey Vero cells after 3 days by neutral red dye-based plaque reduction assay; format: functional, organism-based; conditions: 72 h
West Nile virus = assay: Antiviral activity against WNV infected in African green monkey Vero 76 cells after 3 days by neutral red dye-based plaque reduction assay; format: functional, organism-based
HeLa = assay: Cytotoxicity against human HeLa cells; format: cell-based
[8] = Selectivity index, ratio of CC50 for MDCK cells to IC50 for Influenza A virus H5N1 virus; format: functional
Cowpox virus = assay: Antiviral activity against Cowpox virus infected in HFF after 3 days by neutral red dye-based plaque reduction assay; format: functional, organism-based
[9] = Selectivity index, ratio of CC50 for African green monkey Vero cells to IC50 for Yellow fever virus; format: functional
Influenza A virus [10] = assay: Antiviral activity against Influenza A virus H1N1 infected in MDCK cells after 3 days by neutral red dye-based plaque reduction assay; format: functional, organism-based
[11] = Cytotoxicity against monkey MA104 cells; format: cell-based, Macaca mulatta; conditions: rhesus monkey
Enterovirus = assay: Antiviral activity against Rhinovirus infected in human HeLa Ohio-1 cells after 3 days by neutral red dye-based plaque reduction assay; format: functional, organism-based
Human betaherpesvirus 5 = assay: Antiviral activity against HCMV infected in HFF after 3 days by neutral red dye-based plaque reduction assay; format: functional, organism-based; conditions: Human betaherpesvirus 5, 72 h
[12] = tested on: Respiratory syncytial virus; assay: Antiviral activity against Respiratory syncytial virus infected in monkey MA104 cells after 3 days by neutral red dye-based plaque reduction assay; format: functional, organism-based
SARS-CoV = assay: Antiviral activity against SARS coronavirus infected in African green monkey Vero E6 cells after 3 days by neutral red dye-based plaque reduction assay; format: functional, organism-based; conditions: Severe acute respiratory syndrome-related coronavirus
[13] = Inhibition of rabbit erythrocytic AdoHcy hydrolase using AdoHcy as substrate assessed as formation of L-homocysteine preincubated for 5 mins followed by substrate addition measured after 1 hr by thiol quantitation reagent-based assay; design: species or system Oryctolagus cuniculus
MA104 = assay: Antiviral activity against Parainfluenza virus infected in monkey MA104 cells after 3 days by neutral red dye-based plaque reduction assay; format: functional, cell-based; conditions: Paramyxoviridae
[14] = tested on: Venezuelan equine encephalitis virus; assay: Antiviral activity against Venezuelan equine encephalitis virus infected in African green monkey Vero cells after 3 days by neutral red dye-based plaque reduction assay; format: functional, organism-based
Influenza A virus [15] = assay: Antiviral activity against Influenza A virus H3N2 infected in MDCK cells after 3 days by neutral red dye-based plaque reduction assay; format: functional, organism-based
[16] = tested on: Respiratory syncytial virus; assay: Antiviral activity against Respiratory syncytial virus infected in human HeLa cells after 3 days by neutral red dye-based plaque reduction assay; format: functional, organism-based
[17] = Cytotoxicity against human HeLa Ohio-1 cells; format: cell-based
HEL = assay: Cytotoxicity against HEL cells; format: cell-based; conditions: human
Yellow fever virus = assay: Antiviral activity against Yellow fever virus infected in African green monkey Vero cells after 3 days by neutral red dye-based plaque reduction assay; format: functional, organism-based; conditions: 72 h
[18] = Selectivity index, ratio of CC50 for African green monkey Vero 76 cells to IC50 for Tacaribe virus; format: functional
[19] = Cytotoxicity against African green monkey Vero cells relative to control; format: cell-based; conditions: chlorocebus sabaeus
[20] = Cytotoxicity against African green monkey Vero cells; format: cell-based; conditions: chlorocebus sabaeus, Vero cells
[21] = Selectivity index, ratio of CC50 for HFF to IC50 for HCMV; format: functional
[22] = Cytotoxicity against African green monkey Vero E6 cells; format: cell-based; conditions: chlorocebus sabaeus
Vaccinia virus = assay: Antiviral activity against Vaccinia virus infected in HEL cells after 3 days by neutral red dye-based plaque reduction assay; format: functional, organism-based; conditions: Orthopoxvirus vaccinia
[23] = Selectivity index, ratio of CC50 for African green monkey Vero 76 cells to IC50 for Rift Valley fever virus; format: functional
unidentified adenovirus = assay: Antiviral activity against Adenovirus infected in human A549 cells after 3 days by neutral red dye-based plaque reduction assay; format: functional, organism-based
[24] = Cytotoxicity against HFF; format: cell-based; conditions: human, HFF cells
A549 = assay: Cytotoxicity against human A549 cells; format: cell-based
[25] = Selectivity index, ratio of CC50 for MDCK cells to IC50 for Influenza B virus; format: functional

Row | SMILES | CC50 [2] [µM] | CC50 [3] [µM] | CC50 [4] [µM] | IC50 (Influenza B virus) [µM] | IC50 (Tacaribe virus) [µM] | IC50 (Rift Valley fever virus) [µM] | IC50 (Influenza A virus [6]) [µM] | CC50 [7] [µM] | IC50 (Dengue virus) [µM] | Activity (West Nile virus) | Activity (HeLa) | Ratio CC50/IC50 [8] | Activity (Cowpox virus) | Ratio CC50/IC50 [9] | Activity (Influenza A virus [10]) | Activity [11] | Activity (Enterovirus) | IC50 (Human betaherpesvirus 5) [µM] | Activity [12] | Activity (SARS-CoV) | other results
1 | Nc1ccn([C@@H]2CS[C@H](CO)O2)c(=O)n1 [LAMIVUDINE] | – | – | – | – | – | – | – | – | – | – | – | – | – | – | – | – | – | – | – | – | IC50 (Hepatitis B virus): 0.039 µM; CC50 [1]: 2180 µM
2 | NC(=O)c1ncn([C@@H]2O[C@H](CO)[C@@H](O)[C@H]2O)n1 [RIBAVIRIN] | > 1000 | > 1000 | > 100 | 9 | 26.7 | 37.3 | – | – | – | – | – | – | – | – | – | – | – | – | – | – | –
3 | Nc1ncc(F)c2c1ncn2[C@@H]1C=C(CCO)[C@@H](O)[C@H]1O | 3.4 | 190 | > 340 | 1 | < 0.34 | 1.3 | 139 | > 340 | 15 | inactive | Non-toxic | >2.4 | inactive | >240 | inactive | Non-toxic | inactive | 5.1 | inactive | inactive | Ratio CC50/IC50 [5]: 7.3; IC50 [13]: 0.145 µM; Activity (MA104): inactive; Activity [14]: inactive; Activity (Influenza A virus [15]): inactive; Activity [16]: inactive; Activity [17]: Non-toxic; Activity (HEL): Non-toxic; IC50 (Yellow fever virus): 1.5 µM; Ratio CC50/IC50 [18]: >560; CC50 [19]: 109 µM; CC50 [20]: > 340 µM; Ratio CC50/IC50 [21]: 759; Activity [22]: Non-toxic; Activity (Vaccinia virus): inactive; Ratio CC50/IC50 [23]: 2.6; Activity (unidentified adenovirus): inactive; CC50 [24]: > 300 µM; Activity (A549): Non-toxic; Ratio CC50/IC50 [25]: >340
4 | Cc1cnc(N)c2ncn([C@@H]3C=C(CO)[C@@H](O)[C@H]3O)c12 | 36 | 83.3 | > 362 | 1.1 | 1.2 | > 36 | 76 | 250 | > 228 | inactive | Non-toxic | 3.3 | inactive | >100 | inactive | Non-toxic | inactive | 6.4 | inactive | inactive | IC50 [13]: 0.041 µM; Activity (MA104): inactive; Activity [14]: inactive; Activity (Influenza A virus [15]): inactive; Activity [16]: inactive; Activity [17]: Non-toxic; Activity (HEL): Non-toxic; IC50 (Yellow fever virus): 3.6 µM; Ratio CC50/IC50 [18]: 72; CC50 [19]: 228 µM; CC50 [20]: > 362 µM; Ratio CC50/IC50 [21]: 38.6; Activity [22]: Non-toxic; Activity (Vaccinia virus): inactive; Activity (unidentified adenovirus): inactive; CC50 [24]: 247 µM; Activity (A549): Non-toxic; Ratio CC50/IC50 [25]: >320
